The values that follow come from ChEMBL document CHEMBL1629433, “Synthesis and pharmacological evaluation of the stereoisomers of 3-carba cyclic-phosphatidic acid” (Bioorg Med Chem Lett, 2010).

Calls of active or inactive are those of the source. The calls are words filed in the database; no cut-off is given here.

One assay relates to B16-F10. In words: Antitumor activity against mouse B16-F10 cells grafted in C57/BL6 mouse assessed as inhibition of lung metastases of cancer cells at 0.5 mg/kg/day, ip administered for 10 days and measured on day 21. It is filed as functional, organism-based.
The target of assay [1] is T1, Autotaxin (Homo sapiens, UniProt Q13822). Nature of the assay: Inhibition of recombinant ATX mediated hydrolysis of FS-3 at 0.5 to 2 times IC50.
Assay [2] addresses T1, Autotaxin. Nature of the assay: Inhibition of recombinant ATX mediated hydrolysis of FS-3.
The target of assay [3] is Lysophosphatidic acid receptor 5 (Homo sapiens) (UniProt Q9H1C0). In words: Agonist activity at LPA5 receptor expressed in rat B103 cells assessed as calcium mobilization at >1 uM. The class given is functional, cell-based.
Sequence of Lysophosphatidic acid receptor 5 (Homo sapiens) (Q9H1C0 whole entry): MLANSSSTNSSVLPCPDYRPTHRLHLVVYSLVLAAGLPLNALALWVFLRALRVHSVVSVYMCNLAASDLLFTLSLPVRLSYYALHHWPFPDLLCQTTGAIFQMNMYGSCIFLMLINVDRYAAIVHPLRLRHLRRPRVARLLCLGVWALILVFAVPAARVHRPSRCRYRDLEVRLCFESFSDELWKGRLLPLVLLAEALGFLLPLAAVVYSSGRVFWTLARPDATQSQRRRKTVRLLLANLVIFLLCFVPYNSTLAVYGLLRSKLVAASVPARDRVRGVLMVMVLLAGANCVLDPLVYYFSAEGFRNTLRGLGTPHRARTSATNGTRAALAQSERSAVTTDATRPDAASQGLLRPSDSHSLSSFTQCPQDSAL

A word on the Ki: it is a dissociation constant, usually derived from enzyme kinetics or from competition with a known ligand. Turning to `CCCCCCCCCCCCCCCCCC(=O)OC[C@H]1CCP(=O)(O)O1`, the inhibition entry in the assay with B16-F10 and on Autotaxin [1] was “Active” each time. Moreover, the inhibitory constant (Ki) on Autotaxin [2] is 800 nM. In addition, the result in assay [3] was Active.

For the compound `CCCCCCCCCCCCCCCCCC(=O)OCC1CCP(=O)(O)O1` (racemic), the inhibition result with B16-F10 is “Active”.

For `CCCCCCCCCCCCCCCCCC(=O)OC[C@@H]1CCP(=O)(O)O1`, the inhibition result in the assay on B16-F10 and at Autotaxin [1] was “Active” each time. Moreover, the Ki at Autotaxin [2] came to 1600 nM. In addition, the result in assay [3] was Active.
